Results as given in patent publication US9809621B2, “Stable peptide-based PACE4 inhibitors” (SOCPRA SCIENCES SANTÉ ET HUMAINES S.E.C., priority 2011, dated 2017).
Values joined by “and” are separate entries in the source; they are usually repeats but may differ in a detail not shown here. Equal entries are not always repeated. Where two headings read alike, the source gives them in different places. Square brackets hold non-standard residues; d marks the D form. Peptide text beside a SMILES is read from it. * marks the point of attachment. NH(4-amidinobenzyl) = N=C(N)c1ccc(CN*)cc1

Columns and labels:
PC3 cells = test: MTT proliferation assay in PC3 cells; assay type: cell-based; details: FIG. 1B
furin = furin (Homo sapiens, UniProt P09958); test: Inhibition constant (Ki) for furin; assay type: biochemical
[1] = Plasmatic half-life / degradation by plasmatic protease; assay type: in vitro ADME; details: for half-life: plasma
Procedure: (§1) Multiple multi-Leu variants described in Table 1 were tested for their stability following incubation with DU145 cells, wherein their cellular stability and plasmatic half-life was measured.
Stabilisation strategy for multi-Leu variants was also assessed in presence of plasmatic protease. 8 variants protected at their N-terminal leucines were tested in order to establish their level of degradation since it is expected that N-terminal degradation will occur in absence of any modifications other than acetylation. Variants tested with azaβ3-leucine at each individual position and “click” bonds between the different leucines of the N-terminal part of the variants were protected against degradation (see FIG. 3 for modifications).

PACE4 = target: T1, PACE4 (Homo sapiens, UniProt P29122); test: Inhibition constant (Ki) for PACE4; assay type: biochemical
T1 sequence (P29122 150-969): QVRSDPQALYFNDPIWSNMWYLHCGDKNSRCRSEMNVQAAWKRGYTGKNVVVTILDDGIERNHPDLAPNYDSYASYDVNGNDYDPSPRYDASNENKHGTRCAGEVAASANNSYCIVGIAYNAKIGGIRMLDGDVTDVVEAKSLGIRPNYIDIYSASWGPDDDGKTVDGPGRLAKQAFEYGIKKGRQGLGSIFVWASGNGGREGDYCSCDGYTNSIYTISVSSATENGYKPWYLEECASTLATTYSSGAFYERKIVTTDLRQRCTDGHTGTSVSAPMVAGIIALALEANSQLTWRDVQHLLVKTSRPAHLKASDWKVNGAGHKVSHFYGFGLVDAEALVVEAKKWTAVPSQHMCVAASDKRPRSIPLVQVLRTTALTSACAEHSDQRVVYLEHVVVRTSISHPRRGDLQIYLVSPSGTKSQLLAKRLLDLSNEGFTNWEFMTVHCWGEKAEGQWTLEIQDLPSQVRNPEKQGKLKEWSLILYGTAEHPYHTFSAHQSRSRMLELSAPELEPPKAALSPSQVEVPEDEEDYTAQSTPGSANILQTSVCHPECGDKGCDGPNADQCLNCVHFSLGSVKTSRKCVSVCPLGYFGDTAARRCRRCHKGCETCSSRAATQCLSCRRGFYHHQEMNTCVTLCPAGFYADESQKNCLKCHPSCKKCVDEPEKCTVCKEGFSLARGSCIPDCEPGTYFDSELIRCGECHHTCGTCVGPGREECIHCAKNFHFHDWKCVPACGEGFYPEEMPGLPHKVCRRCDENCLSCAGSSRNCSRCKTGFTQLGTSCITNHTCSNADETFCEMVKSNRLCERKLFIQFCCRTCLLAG

LNCaP cells [2] = details: MTT
[3] = Stability following incubation with DU145 cells; assay type: in vitro ADME, human; details: human, DU145 cells, Table 1, read-out: Stability (% remaining after 48 h)
Procedure: as §1
(§2) Consequently, the multi-Leu peptide was further modified by the addition of amino acid analogues and/or with pseudo peptide bounds which increase the protection of the modified peptides from peptidase and protease degradation. Gains in stability were also measured in vitro in tumoral prostatic human cells (DU145). Increase in stability of the variants was also measured in vivo (FIG. 4).

DU145 cells [4] = test: Stability following incubation with DU145 cells; assay type: in vitro ADME, human
Procedure: as §1, §2

LNCaP cells [5] = test: Cell cycle analysis (DNA content, flow cytometry) of LNCaP cells; assay type: cell-based; details: for Cell cycle effect (in words): 100 μM or 200 μM, FIG. 11; for Cells in G0/G1 phase / Cells in G2/M phase / Cells in S phase / Cells in Sub-G1 (hypodiploid DNA content, apoptotic): 96 hours
Procedure: In order to obtain further support for the antiproliferation effects observed, a DNA content analysis was performed on LNCaP treated cells with 100 μM or 200 μM of ML-peptide and the modified analog […] (FIG. 11). […] Following a 200 μM treatment with the Ac-[D-Leu]LLLRVKR-NH2, a 10% increase in the G0/G1 population was observed along with an increased in cells with hypodiploid DNA content (sub-G1) proportions, which represent apoptotic cells.
To perform cell cycle analysis on LNCaP, 4×10^5 cells are seeded in 10 cm culture dish and grown for 24 hours without treatment. Cells are then treated with vehicle (0.1% DMSO) or with 100 μM or 200 μM of peptides Ac-LLLLRVKR-NH2 or Ac-[D-Leu]LLLRVKR-NH2. Treatments are carried out in complete medium (10% FBS) for a period of 96 hours and cell media is changed every 24 hours to offset peptide degradation. Cells are harvested using trypsin, washed once with PBS, resuspended in 0.5 mL PBS and fixed by drop wise addition of 1.5 mL of ice-cold ethanol. After a 30 minutes incubation at room temperature, cells are washed with PBS and DNA staining is performed in 20 mM HEPES pH 7.2, 0.16M NaCl, 1 mM EGTA buffer containing 10 μg/mL of RNAseA and 10 μg/mL of propidium iodine.
Flow cytometry is performed using a FACScan™ cytometer (Becton Dickinson, Mountain View, Calif.) equipped with a 15 mW argon ion laser tuned at 488 nm. A minimum of 10 000 gated events by sample are acquired. Forward and side scatter signals are used to establish the live gate to exclude debris and cell clumps and a second live gate is set using the FL3-A and FL3-W parameters of the doublet discrimination module (DDM), allowing single cell measurements. The percentages of cells in different phases of cell cycle are calculated by ModFit software (Verity Software House, Topsham, Me.).

DU145 cells [6] = details: MTT
LNCaP tumors = test: Intratumoral treatment of LNCaP tumors in immunosuppressed mice; details: for Plasmatic concentration of PSA (in words): FIG. 9
[7] = read-out: IC50 (μM) DU145, Table 4, DU145 cells

Sequence of furin (P09958 108-794): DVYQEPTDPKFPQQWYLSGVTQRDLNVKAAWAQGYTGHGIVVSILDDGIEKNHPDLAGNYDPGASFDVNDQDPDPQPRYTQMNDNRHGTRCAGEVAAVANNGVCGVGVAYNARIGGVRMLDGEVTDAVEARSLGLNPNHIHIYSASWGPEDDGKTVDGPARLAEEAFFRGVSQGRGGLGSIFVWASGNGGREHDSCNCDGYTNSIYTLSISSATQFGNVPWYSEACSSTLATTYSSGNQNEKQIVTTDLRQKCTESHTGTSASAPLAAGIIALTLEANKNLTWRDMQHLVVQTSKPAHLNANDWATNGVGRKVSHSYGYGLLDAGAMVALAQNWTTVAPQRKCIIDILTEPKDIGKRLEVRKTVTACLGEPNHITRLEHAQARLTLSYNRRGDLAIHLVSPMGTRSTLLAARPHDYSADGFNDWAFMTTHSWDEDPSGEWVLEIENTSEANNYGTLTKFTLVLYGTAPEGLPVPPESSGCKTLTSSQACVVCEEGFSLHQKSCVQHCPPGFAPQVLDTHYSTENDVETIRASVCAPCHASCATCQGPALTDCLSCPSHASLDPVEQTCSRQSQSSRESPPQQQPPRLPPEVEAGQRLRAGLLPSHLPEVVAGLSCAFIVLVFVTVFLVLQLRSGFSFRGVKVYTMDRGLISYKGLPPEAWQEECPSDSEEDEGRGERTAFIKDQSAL

Molecule	Ki (furin)	half-life ([1]; Table 1)	half-life ([1]; Table 2)	Ki (PACE4; Ki for PACE4, Table 1)	Selectivity index PACE4/furin (PACE4; Table 3)	remaining at 48 h [3]	Stability (% remaining after 48 h) (DU145 cells [4]; Table 2)	Cell cycle effect (in words) (LNCaP cells [5])	Cells in G0/G1 phase (LNCaP cells [5]; 100 μM)	Cells in G2/M phase (LNCaP cells [5]; 100 μM)	Cells in S phase (LNCaP cells [5]; 100 μM)	Cells in Sub-G1 (hypodiploid DNA content, apoptotic) (LNCaP cells [5]; 100 μM)	Cells in G0/G1 phase (LNCaP cells [5]; 200 μM)	Cells in G2/M phase (LNCaP cells [5]; 200 μM)	Cells in S phase (LNCaP cells [5]; 200 μM)	Cells in Sub-G1 (hypodiploid DNA content, apoptotic) (LNCaP cells [5]; 200 μM)	IC50 (DU145 cells [6]; [7])	Plasmatic concentration of PSA (in words) (LNCaP tumors; LNCaP tumors)	other results
Ac-LLLLRVKR-NH2 [Multi-Leu (ML), Ac-LLLLRVKR-NH2, reference compound]	0.722 µM	2.1 ± 0.2 h	2.1 ± 0.2 h	38 nM	19	56%	56%	dose-dependant G0/G1 accumulation and S phase decrease	79.7 ± 0.4%	8.4 ± 0.6%	11.9 ± 0.2%	1.0 ± 0.0%	81.5 ± 0.0%	9.2 ± 0.1%	9.3 ± 0.1%	4.8 ± 1.7%	187 ± 44 µM		Inhibition of PC3 cell proliferation (in words) (PC3 cells): very poor inhibition; IC50 (LNCaP cells [2]; read-out: IC50 cellular proliferation LNCaP, FIG. 1B/1D): 180 ± 57 µM; IC50 (DU145 cells [6]; read-out: IC50 cellular proliferation DU145, FIG. 1B/1C): 103 ± 29 µM
CC(=O)N[C@H](CC(C)C)C(=O)N[C@@H](CC(C)C)C(=O)N[C@@H](CC(C)C)C(=O)N[C@@H](CC(C)C)C(=O)N[C@@H](CCCNC(=N)N)C(=O)N[C@H](C(=O)N[C@@H](CCCCN)C(=O)NCc1ccc(C(=N)N)cc1)C(C)C [[D-Leu]^P8-ML-[AMBA]^P1, Ac-[D-Leu]-LLLRVK-[AMBA]] (Ac-[dL]LLLRVK-{NH(4-amidinobenzyl)})		11.3 h	11.3 h															decreased	Appearance of excised tumors (in words) (LNCaP tumors; excised LNCaP tumors, FIG. 10A): smaller and have a white appearance; Level of p27KIP in excised tumors (in words) (LNCaP tumors; immunocytochemistry, vs ML-peptide treated and untreated tumors, FIG. 10B): increased; Level of Ki67 in excised tumors (in words) (LNCaP tumors; immunocytochemistry, vs ML-peptide treated and untreated tumors, FIG. 10C): decreased; Tumor volume (in words) (LNCaP tumors; intratumorally 50 μg/48 h, LNCaP tumors, immunosuppressed mice, FIG. 8): consistently the more potent compound
CC(=O)N[C@@H](CC(C)C)C(=O)N[C@@H](CC(C)C)C(=O)N[C@@H](CC(C)C)C(=O)N[C@@H](CC(C)C)C(=O)N[C@@H](CCCN=C(N)N)C(=O)N[C@H](C(=O)N[C@@H](CCCCN)C(=O)NCc1ccc(C(=N)N)cc1)C(C)C [ML-[AMBA]^P1, Ac-LLLLRVK-[AMBA]] (Ac-LLLLRVK-{NH(4-amidinobenzyl)})							≃80%												Stability (% remaining after 48 h) (DU145 cells [4]; Table 1): ≃80%
CC(=O)N[C@H](CC(C)C)C(=O)N[C@@H](CC(C)C)C(=O)N[C@@H](CC(C)C)C(=O)N[C@@H](CC(C)C)C(=O)N[C@@H](CCCNC(=N)N)C(=O)N[C@H](C(=O)N[C@@H](CCCCN)C(=O)N[C@@H](CCCNC(=N)N)C(N)=O)C(C)C [[D-Leu]^P8-ML, Ac-[D-Leu]-LLLRVKR-NH2]	0.516 µM	~9 h	6.3 h	52 nM and 33 nM	≈20	48%		dose-dependant G0/G1 accumulation and S phase decrease	79.3 ± 1.0%	8.9 ± 0.5%	11.8 ± 0.5%	0.4 ± 0.6%	83.4 ± 0.0%	8.3 ± 0.1%	8.4 ± 0.1%	11.8 ± 2.7%	66 ± 26 µM	decreased	plasmatic half-life ([1]; Table 1): 6.3 h; Ki (PACE4; Ki PACE4 (nM), Table 3): 3 nM; IC50 (LNCaP cells [2]; read-out: IC50 (μM) LNCaP, Table 4, LNCaP cells): 181 ± 59 µM; Cells with hypodiploid DNA content (sub-G1) proportions (in words) (LNCaP cells [5]; 200 μM treatment): increased; Increase in the G0/G1 population (LNCaP cells [5]; 200 μM treatment): 10%
